Drawing on PubChem BioAssay (NCI), this text covers GI50 and TGI for 7 molecules.

Among the test systems are A549 NSCLC; ACHN renal; BT-549 breast; COLO 205 colon; HOP-92 NSCLC; HS 578T breast; OVCAR-5 ovarian; SK-MEL-5 melanoma; SNB-19 CNS; UACC-62 melanoma.
Common to all, as to experiment: NCI-60 cell line screen, 48 h

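Tested at 5 concentrations; 48 h exposure; 96-well plates; endpoints linearly interpolated, else capped at highest concentration. The concentration for 50% growth inhibition is given as GI50. At the TGI there is no net growth.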

On to `Cc1nn(-c2ccc([N+](=O)[O-])cc2)c2ncnc(N/N=C/c3ccccc3O)c12`, for which the GI50 with A549 NSCLC was 0.563 µM; with ACHN renal, 0.3 µM; with BT-549 breast it was 0.431 µM; with COLO 205 colon it was 0.385 µM; with HOP-92 NSCLC, 0.806 µM; in the test on HS 578T breast it was 1.43 µM. Further, the GI50 is 2.04 µM with OVCAR-5 ovarian, 0.448 µM in the test with SK-MEL-5 melanoma, 0.507 µM in the test with SNB-19 CNS and 0.986 µM in the test on UACC-62 melanoma. Moreover, the TGI with A549 NSCLC was 5.41 µM; with ACHN renal it was 1.29 µM; in the test with BT-549 breast, more than 42.4 µM; in the test with COLO 205 colon it was 10.4 µM; in the test with HOP-92 NSCLC, 4.63 µM; in the test with HS 578T breast it was 8.27 µM. The TGI with OVCAR-5 ovarian is more than 100 µM; in the test with SK-MEL-5 melanoma, 2.25 µM; with SNB-19 CNS, 8.65 µM; in the test with UACC-62 melanoma it was 3.76 µM.
As for `OCCn1cnc2c(SCc3ccccc3)ncnc21`, the TGI in the test with A549 NSCLC, with ACHN renal, in the test with BT-549 breast, with COLO 205 colon, in the test on HOP-92 NSCLC and in the test with HS 578T breast was more than 100 µM each time. Besides, the TGI in the test with OVCAR-5 ovarian, in the test on SK-MEL-5 melanoma, with SNB-19 CNS and with UACC-62 melanoma was more than 100 µM throughout.
With `C=C1c2ccoc2C[C@H]2[C@H]1CC[C@@]1(O)[C@@](C)(C(=O)OC)CCC[C@]21C`, the GI50 with A549 NSCLC is 25.5 µM; in the test on ACHN renal it was 16 µM; in the test with BT-549 breast, 26 µM; in the test with COLO 205 colon, 20 µM; in the test with HOP-92 NSCLC, 14.6 µM; in the test on HS 578T breast, 71.9 µM. The GI50 was more than 100 µM in the test on OVCAR-5 ovarian, 18.1 µM in the test with SK-MEL-5 melanoma, 62.1 µM in the test with SNB-19 CNS and 13.7 µM with UACC-62 melanoma. Moreover, the TGI in the test with A549 NSCLC is more than 100 µM; with ACHN renal, 40.9 µM; in the test with BT-549 breast it was 60.3 µM; with COLO 205 colon it was 55 µM; with HOP-92 NSCLC, 57.1 µM; with HS 578T breast it was more than 100 µM. The TGI with OVCAR-5 ovarian was more than 100 µM; with SK-MEL-5 melanoma, 37.8 µM; with SNB-19 CNS, more than 100 µM; in the test with UACC-62 melanoma, 30.7 µM.
Regarding `CCOC(=O)C1CCCCN1C(=O)c1ccc(Nc2cnc3cc(C(F)(F)F)ccc3n2)cc1` (centres undefined), the GI50 is 15 µM in the test with A549 NSCLC; 15.4 µM in the test with ACHN renal; 20.1 µM in the test on BT-549 breast; 23 µM in the test with COLO 205 colon; 3.18 µM with HS 578T breast; 10.3 µM in the test on OVCAR-5 ovarian. The GI50 in the test with SK-MEL-5 melanoma is 12.4 µM; in the test on SNB-19 CNS, 21.3 µM; in the test on UACC-62 melanoma it was 14.2 µM. Moreover, the TGI with A549 NSCLC worked out at 44.2 µM; with ACHN renal, 43.4 µM; with BT-549 breast it was 38.7 µM; in the test on COLO 205 colon, 71.8 µM; in the test on HOP-92 NSCLC it was 5.93 µM; in the test on HS 578T breast it was 14.7 µM. For the same molecule, the TGI with OVCAR-5 ovarian is 23 µM; in the test on SK-MEL-5 melanoma it was 25.1 µM; with SNB-19 CNS, 64.1 µM; in the test with UACC-62 melanoma, 27.7 µM.
Regarding `Cc1ccc(-c2csc(NC(=O)N3CCN(c4cc5c(cc4F)c(=O)c(C(=O)O)cn5C4CC4)CC3)n2)cc1`, the GI50 with A549 NSCLC was 0.365 µM; in the test on ACHN renal, 0.307 µM; in the test on BT-549 breast it was 0.345 µM; in the test with COLO 205 colon it was 1.92 µM; with HOP-92 NSCLC, 0.431 µM; in the test with HS 578T breast it was 0.666 µM. Further, the GI50 with OVCAR-5 ovarian is 0.867 µM; in the test with SK-MEL-5 melanoma, 0.889 µM; with SNB-19 CNS, 0.398 µM; in the test on UACC-62 melanoma it was 0.63 µM. In addition, the TGI in the test on A549 NSCLC was more than 100 µM; in the test on ACHN renal, 4.22 µM; with BT-549 breast, 2.65 µM; in the test on COLO 205 colon it was 6 µM; with HOP-92 NSCLC it was 3.91 µM; with HS 578T breast, more than 100 µM. Besides, the TGI is more than 100 µM with OVCAR-5 ovarian, 2.51 µM with SK-MEL-5 melanoma, more than 100 µM in the test on SNB-19 CNS and 6.29 µM with UACC-62 melanoma.
For the molecule `CN(C)c1ccc(C(=NO)c2ccc(N(C)C)cc2)cc1`, the GI50 in the test with A549 NSCLC is 3.34 µM; in the test on ACHN renal, 8.43 µM; in the test on BT-549 breast it was 7.34 µM; with COLO 205 colon, 3.51 µM; in the test on HOP-92 NSCLC it was 15.2 µM; in the test on HS 578T breast, 7.39 µM. Besides, the GI50 is 15.1 µM in the test with OVCAR-5 ovarian, 1.57 µM in the test with SK-MEL-5 melanoma, 4.04 µM in the test with SNB-19 CNS and 2.11 µM with UACC-62 melanoma. The TGI was more than 100 µM with A549 NSCLC; more than 100 µM in the test with ACHN renal; more than 100 µM in the test on BT-549 breast; 22.4 µM with COLO 205 colon; more than 100 µM with HOP-92 NSCLC; more than 100 µM in the test on HS 578T breast. Moreover, the TGI in the test on OVCAR-5 ovarian was more than 100 µM; with SK-MEL-5 melanoma, 4.74 µM; with SNB-19 CNS, more than 100 µM; in the test with UACC-62 melanoma, more than 100 µM.
Take `O1[As]2O[As]3O[As]1O[As](O2)O3`: the GI50 in the test on A549 NSCLC was 3.29 µM; with ACHN renal, 2.54 µM; in the test with BT-549 breast, 0.278 µM; in the test on COLO 205 colon, 1.67 µM; in the test on HOP-92 NSCLC, 0.238 µM; in the test with HS 578T breast it was 0.981 µM. Further, the GI50 in the test on OVCAR-5 ovarian was 1.41 µM; with SK-MEL-5 melanoma, 0.473 µM; with SNB-19 CNS it was 1.65 µM; with UACC-62 melanoma, 0.574 µM. In addition, the TGI in the test on A549 NSCLC is 14.9 µM; with ACHN renal, 11.2 µM; in the test on BT-549 breast, 0.903 µM; with COLO 205 colon, 4.5 µM; in the test on HOP-92 NSCLC, 0.897 µM; in the test with HS 578T breast, more than 42.5 µM. Also, the TGI worked out at 5.32 µM in the test on OVCAR-5 ovarian, 1.75 µM with SK-MEL-5 melanoma, 4.44 µM with SNB-19 CNS and 2.18 µM in the test on UACC-62 melanoma.
